Assay [1] has as its target BACE1 (Homo sapiens, UniProt P56817). Nature of the assay: In vitro enzymatic BACE FRET assay. Type of assay: biochemical. The conditions noted are these: beta secretase enzyme 0.2 nM, FRET substrate 50 nM, pH 4.2; read-out: BACE1 FRET assay (IC50 class). In outline:
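Beta-secretase (0.2 nM) was pre-incubated 1 h with serially diluted inhibitor in 0.05 M acetate pH 4.2, 10% DMSO, 100 uM genapol. Then 50 nM quenched peptide FRET substrate was added for 1 h. The reaction was stopped with Tris to neutral pH and fluorescence read ([…]).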

Assay [2] deals with Aβ40 in conditioned medium of cells stably expressing Amyloid Precursor Protein (APP). Nature of the assay: In vitro BACE cell-based assay (HEK cell assay), Aβ40 sandwich ELISA. The conditions noted are these: Homo sapiens, HEK293, 24 h, inhibition of Aβ40, 24 h incubation, read-out: HEK cell assay (IC50 class). In outline: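 APP-stably expressing cells (40K/well) grown 24 h, then treated 24 h with 10-point doses from 100 μM or 10 μM top (0.1% DMSO). Secreted Aβ40 quantified by sandwich ELISA (pAb40 capture, biotinylated 6E10 detection, europium time-resolved fluorescence); IC50 from percent inhibition versus concentration.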
(An ELISA detects its analyte on a solid surface through an enzyme-linked reagent.)

Chain of BACE1 (P56817 46-501, species assumed): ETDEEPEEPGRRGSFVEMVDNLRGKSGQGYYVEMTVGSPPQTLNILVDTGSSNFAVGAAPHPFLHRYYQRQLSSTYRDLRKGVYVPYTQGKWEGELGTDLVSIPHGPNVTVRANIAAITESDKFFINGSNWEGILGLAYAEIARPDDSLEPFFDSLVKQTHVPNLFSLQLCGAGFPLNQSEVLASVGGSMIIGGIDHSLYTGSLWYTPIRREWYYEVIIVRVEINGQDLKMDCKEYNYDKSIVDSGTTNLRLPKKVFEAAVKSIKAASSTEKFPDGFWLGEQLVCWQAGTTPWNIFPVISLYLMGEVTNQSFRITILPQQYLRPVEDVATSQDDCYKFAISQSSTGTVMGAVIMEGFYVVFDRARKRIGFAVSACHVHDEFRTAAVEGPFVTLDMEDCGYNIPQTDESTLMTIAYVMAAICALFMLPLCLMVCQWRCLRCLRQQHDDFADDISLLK

For orientation: IC50 means the concentration needed to halve the response being measured. For `CCN(C(=O)c1cccc(C)c1-c1ccc2nc(N)c(N3CCOCC3)cc2c1)C1CCCCC1` [Example 113, 2-(2-amino-3-morpholinoquinolin-6-yl)-N-cyclohexyl-N-ethyl-3-methylbenzamide], the results for the IC50 in assay [1] and in assay [2] were 100 to 500 nM and 1010 to 5000 nM, respectively.
Taken in the same sequence, the figures for `Nc1nc2ccc(-c3cccc(F)c3C(=O)N3CCCC3)cc2cc1N1CCOCC1` [Example 142, (2-(2-amino-3-morpholinoquinolin-6-yl)-6-fluorophenyl)(pyrrolidin-1-yl)methanone] were 1010 to 5000 nM and above 5000 nM.
Regarding `Cc1cccc(C(=O)c2ccccn2)c1-c1ccc2nc(N)c(N3CCOCC3)cc2c1` [Example 157, (2-(2-amino-3-morpholinoquinolin-6-yl)-3-methylphenyl)(pyridin-2-yl)methanone], the IC50 in assay [1] was below 100 nM; in assay [2] it was 501 to 1000 nM.
Taken in the same sequence, the figures for `Cc1cccc(C(N)c2ccccn2)c1-c1ccc2nc(N)c(N3CCOCC3)cc2c1` (stereo not shown) [Example 196, 6-(2-(amino(pyridin-2-yl)methyl)-6-methylphenyl)-3-morpholinoquinolin-2-amine] were 100 to 500 nM and 100 to 500 nM.
For `Nc1nc2ccc(-c3c(F)cccc3C(=O)N3CCCC3)cc2cc1N1CCOCC1` [Example 148, (2-(2-amino-3-morpholinoquinolin-6-yl)-3-fluorophenyl)(pyrrolidin-1-yl)methanone], the concentration for half-maximal inhibition (IC50) fell in the range of 100 to 500 nM in assay [1] and 1010 to 5000 nM in assay [2].
The matching figures for `Cc1cccc(C(=O)C2CC2)c1-c1ccc2nc(N)c(N3CCOCC3)cc2c1` [Example 186, (2-(2-amino-3-morpholinoquinolin-6-yl)-3-methylphenyl)(cyclopropyl)methanone]: 100 to 500 nM and 1010 to 5000 nM.
Taken in the same sequence, the figures for `Cc1cccc(C(=O)N2CCCC2C(C)(C)C)c1-c1ccc2nc(N)c(N3CCOCC3)cc2c1` (stereo not shown) [Example 64, (2-(2-amino-3-morpholinoquinolin-6-yl)-3-methylphenyl)(2-tert-butylpyrrolidin-1-yl)methanone] were below 100 nM and 501 to 1000 nM.
`Cc1cccc(Cc2ccccc2)c1-c1ccc2nc(N)c(N3CCOCC3)cc2c1` [Example 18, 6-(2-benzyl-6-methylphenyl)-3-morpholinoquinolin-2-amine]: the IC50 in assay [1] was below 100 nM; in assay [2], 1010 to 5000 nM.
As to `Cc1cccc(C(=O)N(C)CC(C)(C)C)c1-c1ccc2nc(N)c(N3CCOCC3)cc2c1` [Example 41, 2-(2-amino-3-morpholinoquinolin-6-yl)-N,3-dimethyl-N-neopentylbenzamide], the results for the IC50 in assay [1] and in assay [2] were below 100 nM and 501 to 1000 nM, respectively.
The matching figures for `Nc1nc2ccc(-c3c(CCC4CCCCC4)cccc3C(=O)N3CCCC3)cc2cc1N1CCOCC1` [Example 168, (2-(2-amino-3-morpholinoquinolin-6-yl)-3-(2-cyclohexylethyl)phenyl)(pyrrolidin-1-yl)methanone]: below 100 nM and below 100 nM.
The matching figures for `Nc1nc2ccc(-c3ccc(Cl)cc3C(=O)N3CCCC3)cc2cc1N1CCOCC1` [Example 147, (2-(2-amino-3-morpholinoquinolin-6-yl)-5-chlorophenyl)(pyrrolidin-1-yl)methanone]: 100 to 500 nM and 1010 to 5000 nM.
Turning to `Cc1cccc(C(=O)N2CCC(C(F)(F)F)C2)c1-c1ccc2nc(N)c(N3CCOCC3)cc2c1` (stereo not shown) [Example 96, (2-(2-amino-3-morpholinoquinolin-6-yl)-3-methylphenyl)(3-(trifluoromethyl)pyrrolidin-1-yl)methanone], the half-maximal inhibitory concentration (IC50) is below 100 nM in assay [1] and 1010 to 5000 nM in assay [2].
Take `Cc1cccc(C(=O)N2CCCC2)c1-c1ccc2nc(N)c(C3CCOC(C)(C)C3)cc2c1` (stereo not shown) [Example 205, (2-(2-amino-3-(2,2-dimethyltetrahydro-2H-pyran-4-yl)quinolin-6-yl)-3-methylphenyl)(pyrrolidin-1-yl)methanone]: the concentration for half-maximal inhibition (IC50) in assay [1] and in assay [2] was below 100 nM each time.
With `CCCC(=O)c1cccc(C)c1-c1ccc2nc(N)c(N3CCOCC3)cc2c1` [Example 179, 1-(2-(2-amino-3-morpholinoquinolin-6-yl)-3-methylphenyl)butan-1-one], the IC50 in assay [1] lay in the range of 100 to 500 nM; in assay [2], 1010 to 5000 nM.
The matching figures for `Cc1cccc(Cc2cnccn2)c1-c1ccc2nc(N)c(N3CCOCC3)cc2c1` [Example 37, 6-(2-methyl-6-(pyrazin-2-ylmethyl)phenyl)-3-morpholinoquinolin-2-amine]: 501 to 1000 nM and 1010 to 5000 nM.
Take `CCCN(C(=O)c1cccc(C)c1-c1ccc2nc(N)c(N3CCOCC3)cc2c1)C(C)C` [Example 106, 2-(2-amino-3-morpholinoquinolin-6-yl)-N-isopropyl-3-methyl-N-propylbenzamide]: the IC50 in assay [1] was 501 to 1000 nM; in assay [2], above 5000 nM.
Taken in the same sequence, the figures for `CCCCN(CC)C(=O)c1cccc(C)c1-c1ccc2nc(N)c(N3CCOCC3)cc2c1` [Example 118, 2-(2-amino-3-morpholinoquinolin-6-yl)-N-butyl-N-ethyl-3-methylbenzamide] were 501 to 1000 nM and 1010 to 5000 nM.
Taken in the same sequence, the figures for `Cc1cccc(C2NCCc3ccccc32)c1-c1ccc2nc(N)c(N3CCOCC3)cc2c1` (stereo not shown) [Example 10, 6-(2-methyl-6-(1,2,3,4-tetrahydroisoquinolin-1-yl)phenyl)-3-morpholinoquinolin-2-amine] were 1010 to 5000 nM and 100 to 500 nM.
The matching figures for `Cc1cc(F)cc(C(=O)N2CCCC2)c1-c1ccc2nc(N)c(N3CCOCC3)cc2c1` [Example 27, (2-(2-amino-3-morpholinoquinolin-6-yl)-5-fluoro-3-methylphenyl)(pyrrolidin-1-yl)methanone]: below 100 nM and 100 to 500 nM.
On to `Nc1nc2ccc(-c3ccccc3F)cc2cc1N1CCOCC1` [Example 220, 6-(2-fluorophenyl)-3-morpholinoquinolin-2-amine], for which the IC50 is 1010 to 5000 nM in assay [1] and above 5000 nM in assay [2].
For `CC=CC(=O)c1cccc(C)c1-c1ccc2nc(N)c(N3CCOCC3)cc2c1` [Example 183, 1-(2-(2-amino-3-morpholinoquinolin-6-yl)-3-methylphenyl)but-2-en-1-one], the concentration for half-maximal inhibition (IC50) in assay [1] was 100 to 500 nM; in assay [2] it was 1010 to 5000 nM.
The matching figures for `Cc1cccc(C(O)c2cnccn2)c1-c1ccc2nc(N)c(N3CCOCC3)cc2c1` (stereo not shown) [Example 36, (2-(2-amino-3-morpholinoquinolin-6-yl)-3-methylphenyl)(pyrazin-2-yl)methanol]: 1010 to 5000 nM and 1010 to 5000 nM.
In the case of `Cc1ccc(C2(C)CN(c3cc4cc(-c5c(C)cccc5C(=O)N5CCCC5)ccc4nc3N)CCO2)cc1` (stereo not shown) [Example 217, (2-(2-amino-3-(2-methyl-2-p-tolylmorpholino)quinolin-6-yl)-3-methylphenyl)(pyrrolidin-1-yl)methanone], the IC50 lay within 100 to 500 nM in assay [1] and 1010 to 5000 nM in assay [2].
For the compound `Nc1nc2ccc(-c3ccccc3C(=O)c3ccccc3)cc2cc1N1CCOCC1` [Example 151, (2-(2-amino-3-morpholinoquinolin-6-yl)phenyl)(phenyl)methanone], the values for the half-inhibitory concentration (IC50) in assay [1] and in assay [2] were 100 to 500 nM and 1010 to 5000 nM, respectively.
Taken in the same sequence, the figures for `COc1ccccc1C(=N)c1cccc(C)c1-c1ccc2nc(N)c(N3C[C@@H]4C[C@H]3CO4)cc2c1` [Example 188, 3-((1S,4S)-2-oxa-5-azabicyclo[2.2.1]heptan-5-yl)-6-(2-(imino(2-methoxyphenyl)methyl)-6-methylphenyl)quinolin-2-amine] were 100 to 500 nM and 501 to 1000 nM.
The matching figures for `CCC1CN(c2cc3cc(-c4c(C)cccc4C(=O)N4CCCC4)ccc3nc2N)CCO1` (stereo not shown) [Example 21, (2-(2-amino-3-(2-ethylmorpholino)quinolin-6-yl)-3-methylphenyl)(pyrrolidin-1-yl)methanone]: below 100 nM and 1010 to 5000 nM.
As to `Cc1cccc(C(=O)N2CCCCC2)c1-c1ccc2nc(N)c(N3CCOCC3)cc2c1` [Example 58, (2-(2-amino-3-morpholinoquinolin-6-yl)-3-methylphenyl)(piperidin-1-yl)methanone], the IC50 in assay [1] is below 100 nM; in assay [2], 501 to 1000 nM.
The matching figures for `Nc1nc2ccc(-c3ccccc3C(=O)CC3CCCC3)cc2cc1N1CCOCC1` [Example 156, 1-(2-(2-amino-3-morpholinoquinolin-6-yl)phenyl)-2-cyclopentylethanone]: below 100 nM and 1010 to 5000 nM.
Taken in the same sequence, the figures for `Cc1cccc(-c2cccc(C(F)(F)F)c2)c1-c1ccc2nc(N)c(N3CCOCC3)cc2c1` [Example 25, 6-(3-methyl-3′-(trifluoromethyl)biphenyl-2-yl)-3-morpholinoquinolin-2-amine] were below 100 nM and above 5000 nM.
`CCCC1CCCCN1C(=O)c1cccc(C)c1-c1ccc2nc(N)c(N3CCOCC3)cc2c1` (stereo not shown) [Example 79, (2-(2-amino-3-morpholinoquinolin-6-yl)-3-methylphenyl)(2-propylpiperidin-1-yl)methanone]: the IC50 in assay [1] was in the range of 100 to 500 nM; in assay [2], 1010 to 5000 nM.
Taken in the same sequence, the figures for `COc1ccccc1C(=N)c1cccc(C)c1-c1ccc2nc(N)c(N3CCOCC3)cc2c1` [Example 6, 6-(2-(imino(2-methoxyphenyl)methyl)-6-methylphenyl)-3-morpholinoquinolin-2-amine] were below 100 nM and below 100 nM.
Taken in the same sequence, the figures for `Cc1cccc(C(=O)N2CCCC2)c1-c1ccc2nc(N)c(N3CCCCC3)cc2c1` [Example 61, (2-(2-amino-3-(piperidin-1-yl)quinolin-6-yl)-3-methylphenyl)(pyrrolidin-1-yl)methanone] were 501 to 1000 nM and 1010 to 5000 nM.
